Molecules are shown by their SMILES.

Assay [1] concerns the target T1, ActA (Streptococcus mutans, UniProt Q8DVT1).
T1 construct: gene SMU_386; recombinant His-tagged from pET28a, E. coli BL21(DE3), nickel purified
T1 sequence (Q8DVT1 1-144): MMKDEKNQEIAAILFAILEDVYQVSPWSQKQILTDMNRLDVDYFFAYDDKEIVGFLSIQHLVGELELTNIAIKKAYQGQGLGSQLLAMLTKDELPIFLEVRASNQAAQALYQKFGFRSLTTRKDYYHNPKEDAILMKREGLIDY
As to the kind of experiment: in vitro acylation of LDH, anti-Kac Western blot. The format is biochemical. To be noted: acyl acceptor recombinant LDH; pH 7.5, 10 mM MgCl2, 37°C, 3 h. In general terms: A western blot detects proteins with antibodies after separation by electrophoresis.

For assay [2], the target named is T1, ActA. As to the kind of experiment: in vitro acylation of LDH, anti-Kla Western blot. The format is biochemical. To be noted: acyl acceptor recombinant LDH; pH 7.5, 10 mM MgCl2, 37°C, 3 h.

Take `CC(=O)SCCNC(=O)CCNC(=O)[C@H](O)C(C)(C)COP(=O)(O)OP(=O)(O)OC[C@H]1O[C@@H](n2cnc3c(N)ncnc32)[C@H](O)[C@@H]1OP(=O)(O)O` [Ac-CoA]: at ActA [1], the “in vitro acylation of LDH, anti-Kac Western blot” value was “However, ActA significantly increased the levels of Kla and Kac in LDH enzymatically”.
For `CC(O)C(=O)SCCNC(=O)CCNC(=O)[C@H](O)C(C)(C)COP(=O)(O)OP(=O)(O)OC[C@H]1O[C@@H](n2cnc3c(N)ncnc32)[C@H](O)[C@@H]1OP(=O)(O)O` (some centres unmarked) [La-CoA], at ActA [2], the “in vitro acylation of LDH, anti-Kla Western blot” value was “However, ActA significantly increased the levels of Kla and Kac in LDH enzymatically”.
